According to patent US7211561B2, “Method for inducing selective cell death of malignant cells by activation of calcium-activated potassium channels (KCa)” (Cedars-Sinai Medical Center, priority 2001, dated 2007):

How the values were obtained:
U87 human glioma cells = assay: In vitro apoptosis assay (Annexin V-FITC/propidium iodide, FACS); assay type: cell-based
Procedure: (§1) Human glioma cells (U-87) and HBMVECells were seeded into a 25-mL tissue-culture flask. After 24 h (about 60–70% confluencey), cells were treated with either […] (50 or 100 micrograms/mL) or staurosporine (positive control; 5 μM), a known inducer of apoptosis (Tamaoki, T., et al., Staurosporine, a potent inhibitor of phospholipid/Ca^++ dependent protein kinase, Biochem. Biophys. Res. Commun. 135: 397–402 [1986]; Matsumoto, H., and Sasaki, Y., Staurosporine, a protein kinase C inhibitor interferes with proliferation of arterial smooth muscle cells, Biochem. Biophys. Res. Commun. 158:105–109 [1989]). U-87 cells were returned to the CO2 incubator and incubated overnight. The following day, cells were washed twice with fresh growth medium and cells prepared for FACS analysis as described hereinbelow.
The changes in plasma membrane are one of the earliest events in cell death. In apoptotic cells the membrane phospholipid phosphatidylserine (PS) is translocated from the inner to the outer leaflet of the cell membrane in the early phases of apoptosis. Annexin V is a Ca^2+-dependent, phospholipid-binding protein that binds to PS with high affinity. Consequently, Annexin V (PharMingen) conjugated to a label, such as fluorescein isothiocyanate (FITC) or biotin, serves as a sensitive probe for flow cytometry analysis of cells that are undergoing apoptosis. […] (PharMingen; Vermes, I. et al., A novel assay for apoptosis. Flow cytometric detection of phosphatidylserine expression on early apoptotic cells using fluorescein labelled Annexin V, J. Immunol. Meth. 184:39–51 [1995]). Concurrently, propidium iodide is typically used as a standard flow cytometric viability probe, because the intact cell membranes of viable cells exclude propidium iodide, whereas the cell membranes of dead and damaged cells are permeable to propidium iodide. Cells that stain positive for Annexin V and negative for propidium iodide are undergoing apoptosis; cells that stain positive for both Annexin V and propidium iodide are either at the end stage of apoptosis, are undergoing necrosis, or are already dead; and cells that stain negative for both Annexin V-biotin and propidium iodide are alive and not undergoing measurable apoptosis. Briefly, the cells were washed twice with cold PBS and then resuspended in 1× binding buffer (10 mM HEPES/NaOH, pH 7.4, 140 mM NaCl, 2.5 mM CaCl2; 4° C.) at a concentration of about 1×10^6 cells/mL. A 100-μL aliquot of cell suspension was transferred to 5-mL culture tubes, and 2.5 μL of Annexin V-FITC and 2.5-μL of propidium iodide (PharMingen) were added to each tube. The cell suspensions were gently mixed and incubated for 15 min at room temperature in the dark, after which 400 μL of binding buffer was added to each tube of cells. […]

[1] = system: implanted RG2 glioma tumor in Wistar rats; assay: In vivo apoptosis, intracarotid infusion, implanted tumor tissue (FACS); parameters: species or system rat; settings: for apoptotic cells / necrotic cells / apoptosis / necrosis: RG2 tumor
Source text: (§2) The changes in plasma membrane are one of the earliest events in cell death. In apoptotic cells the membrane phospholipid phosphatidylserine (PS) is translocated from the inner to the outer leaflet of the cell membrane in the early phases of apoptosis. Annexin V is a Ca^2+-dependent, phospholipid-binding protein that binds to PS with high affinity. Consequently, Annexin V (PharMingen) conjugated to a label, such as fluorescein isothiocyanate (FITC) or biotin, serves as a sensitive probe for flow cytometry analysis of cells that are undergoing apoptosis. […] (PharMingen; Vermes, I. et al., A novel assay for apoptosis. Flow cytometric detection of phosphatidylserine expression on early apoptotic cells using fluorescein labelled Annexin V, J. Immunol. Meth. 184:39–51 [1995]). Concurrently, propidium iodide is typically used as a standard flow cytometric viability probe, because the intact cell membranes of viable cells exclude propidium iodide, whereas the cell membranes of dead and damaged cells are permeable to propidium iodide. Cells that stain positive for Annexin V and negative for propidium iodide are undergoing apoptosis; cells that stain positive for both Annexin V and propidium iodide are either at the end stage of apoptosis, are undergoing necrosis, or are already dead; and cells that stain negative for both Annexin V-biotin and propidium iodide are alive and not undergoing measurable apoptosis. Briefly, the cells were washed twice with cold PBS and then resuspended in 1× binding buffer (10 mM HEPES/NaOH, pH 7.4, 140 mM NaCl, 2.5 mM CaCl2; 4° C.) at a concentration of about 1×10^6 cells/mL. A 100-μL aliquot of cell suspension was transferred to 5-mL culture tubes, and 2.5 μL of Annexin V-FITC and 2.5-μL of propidium iodide (PharMingen) were added to each tube. The cell suspensions were gently mixed and incubated for 15 min at room temperature in the dark, after which 400 μL of binding buffer was added to each tube of cells. The cells were then washed once with 1×binding buffer. Analysis by flow cytometry was then conducted immediately, and no later than within one hour. The resulting analytic FACS graphs were typically divided into four quadrants wherein the upper right (UR) quadrant represented the number of necrotic cells; the lower left (LL) quadrant represented the number of viable cells; the lower right (LR) quadrant represented the number of apoptotic cells; and the upper left (UL) represented cells of an intermediate category, which generally represents cell debris and DNA fragments. The percentage of gated events in each quadrant was used to determine the total percentage of apoptotic and necrotic cells in each cell suspension.
A rat tumor model, which consisted of intracranially implanted RG2 cells (rat glioma cell line) in Wistar rats, was employed to investigate whether any of several potassium channel activators induce selective apoptosis of tumor cells in vivo.
The techniques for RG2 cell propagation and maintenance in tissue culture have been described (Sugita, M. and Black, K. L., Cyclic GMP-specific phosphodiesterase inhibition and intracarotid bradykinin infusion enhances permeability into brain tumors, Cancer Res. 58(5):914–20 [1998]; Inamura et al. [1994]; Nakano, S. et al., Increased brain tumor microvessel permeability after intracarotid bradykinin infusion is mediated by nitric oxide, Cancer Res. 56(17):4027–31 [1996]). Briefly, RG2 cells derived from a rat glioma are kept frozen until use, then are thawed and maintained in a monolayer culture in F12 medium with 10% calf serum.
The Wistar rats (approximately 140–160 g body weight) were anesthetized with intra-peritoneal ketamine (50 mg/kg), and glial cells (1×10^5) were implanted into the right hemisphere, but not the contralateral hemisphere, by intracerebral injection suspended in 5 μL F12 medium (1–2% methylcellulose) by a Hamilton syringe. The implantation coordinates were 3-mm lateral to the bregma and 4.5 mm deep to the dural surface. […]

[2] = system: contralateral normal brain tissue of Wistar rats with implanted RG2 tumor; assay: In vivo apoptosis, intracarotid infusion, contralateral tissue (FACS); settings: 20 μg/kg body mass bolus, positive control (FIG. 8J)
Source text: (§3) The changes in plasma membrane are one of the earliest events in cell death. In apoptotic cells the membrane phospholipid phosphatidylserine (PS) is translocated from the inner to the outer leaflet of the cell membrane in the early phases of apoptosis. Annexin V is a Ca^2+-dependent, phospholipid-binding protein that binds to PS with high affinity. Consequently, Annexin V (PharMingen) conjugated to a label, such as fluorescein isothiocyanate (FITC) or biotin, serves as a sensitive probe for flow cytometry analysis of cells that are undergoing apoptosis. […] (PharMingen; Vermes, I. et al., A novel assay for apoptosis. Flow cytometric detection of phosphatidylserine expression on early apoptotic cells using fluorescein labelled Annexin V, J. Immunol. Meth. 184:39–51 [1995]). Concurrently, propidium iodide is typically used as a standard flow cytometric viability probe, because the intact cell membranes of viable cells exclude propidium iodide, whereas the cell membranes of dead and damaged cells are permeable to propidium iodide. […]

9L rat glioma cells = assay: Cell proliferation assay (WST-1, OD 450 nm); assay type: cell-based; settings: 1–100 μg/mL, 4 hours, dose-dependent (FIG. 1)
Procedure: (§4) Primary cell lines were prepared from human gliomas (glioblastoma multiforme [GBM] or astrocytoma) or established rat glioma cell lines (RG2, C6 and 9L) were used. Cultured human normal cell lines, brain microvessel endothelial cells (HBMVEC), or fetal astrocytes were used.
(§5) Cells (5×10^4 cells) were cultured in each well of 96-well microtiter culture plates and were allowed to achieve confluency to form a monolayer of cells in each well. For dose response studies cells were incubated with different concentrations (1–100 μg/mL) of NS-1619 or minoxidil sulfate for 4 hours at 37° C. in a CO2 (5%) incubator. Cells washed twice carefully with respective medium, and allowed to incubate overnight at 37° C. under 5% CO2. The following day, cells were incubated with WST-1 reagent (Boehringer Mannheim) at 37° C. in a CO2 (5%) incubator for 60–90 minutes, and optical density at 450 nm was measured with a 96-well plate reader. The magnitude of OD indicated the number of viable cells, greater the OD, higher the number of viable cells, correlated a standard curve of cell numbers.

C6 rat glioma cells = assay: Cell proliferation assay (WST-1, OD 450 nm); assay type: cell-based; settings: 1–100 μg/mL, 4 hours, dose-dependent (FIG. 1)
Procedure: as §4, §5

RG2 rat glioma cells = assay: Cell proliferation assay (WST-1, OD 450 nm); assay type: cell-based
Procedure: as §4, §5

[3] = system: human normal brain microvessel endothelial cells (HBMVEC); assay: Cell proliferation assay (WST-1, OD 450 nm); assay type: cell-based
Procedure: as §4, §5

[4] = system: human normal fetal astrocytes (HFA); assay: Cell proliferation assay (WST-1, OD 450 nm); assay type: cell-based
Procedure: as §4, §5

[5] = system: primary human GBM glioma cell line; assay: Cell proliferation assay (WST-1, OD 450 nm); assay type: cell-based
Procedure: as §4, §5

[6] = system: primary human astrocytoma cell line; assay: Cell proliferation assay (WST-1, OD 450 nm); assay type: cell-based; settings: 1–100 μg/mL, 4 hours, dose-dependent (FIG. 2)
Procedure: as §4, §5

malignant 9L cells = assay: In vitro apoptosis assay (Annexin V-FITC/propidium iodide, FACS); assay type: cell-based, rat; settings: 50 μg/mL (FIG. 6E)
Source text: as §2

malignant C6 cells = assay: as above; assay type: cell-based, rat; settings: 50 μg/mL (FIG. 6C)
Source text: as §2

malignant RG2 cells = assay: as above; assay type: cell-based, rat; settings: 50 μg/mL (FIG. 6A)
Source text: as §2

primary human GBM cells = assay: as above; assay type: cell-based; settings: 50 μg/mL (FIG. 7A)
Source text: as §3

non-malignant HBMVEC = assay: as above; assay type: cell-based, human; settings: 50 μg/mL (FIG. 7C)
Procedure: as §1
The changes in plasma membrane are one of the earliest events in cell death. In apoptotic cells the membrane phospholipid phosphatidylserine (PS) is translocated from the inner to the outer leaflet of the cell membrane in the early phases of apoptosis. Annexin V is a Ca^2+-dependent, phospholipid-binding protein that binds to PS with high affinity. Consequently, Annexin V (PharMingen) conjugated to a label, such as fluorescein isothiocyanate (FITC) or biotin, serves as a sensitive probe for flow cytometry analysis of cells that are undergoing apoptosis. […]

[7] = system: PTK activity in RG2 cell lysate; assay: Protein tyrosine kinase (PTK) assay; assay type: biochemical, rat; settings: 1–50 μM (FIG. 10)
Procedure: A PTK assay kit (The Oncogene Research Products, Boston, Mass.) was used to determine the presence and relative amounts of protein kinase activity in tissue cytosols and cell extracts. Briefly, 1×10^4 RG2 cells seeded in a 50-mL culture flask, and allowed to achieve confluency to form a monolayer at 37° C. in a CO2 incubator.
Briefly, RG2 cells were harvested after trypsinization, and cells were pelleted by centrifugation. Cells were resuspended with extraction buffer (20 mM Tris, pH 7.4, 50 mM NaCl, 1 mM EDTA, 1 mM EGTA, 0.2 mM PMSF, 1 μg/mL pepstatin, 0.5 μg/mL leupetin, 0.2 mM Na3VO4, 5 mM mercaptoethanol, 0.1% Triton X-100), and cells were lysed using a cell homogenizer. After centrifugation, supernatant was separated from the pellet for PTK assay. The supernatant was treated with superoxide dismutase. Pervanadate (100 mM) was used in the PTK assay to inhibit […] activity, and protein concentration was determined by Lowry's method using a Bio-Rad protein assay kit. […]
Assay for PTK activity in RG2 cell-lysates was then performed according to the protocol supplied by the PTK assay kit's manufacturer. After adding the stop solution, absorbance measured in each well at 450 nm using a Spectramax Plus (Molecular Devices, Sunnyvale, Calif.).

Solubility in water = assay type: physicochemical
Source text: The skilled practitioner is cautious in regulating the final concentration of solvent in the infusion solution to avoid solvent-related toxicity. For example, a final ethanol concentration in an infusion solution up to 5–10% (v/v) is tolerated by most mammalian subjects with negligible toxicity.

[8] = 5 μM, positive control (FIG. 5C)
[9] = 20 μg/kg body mass bolus, positive control (FIG. 8I)
[10] = 50 μg/kg body mass, two consecutive daily doses, intracarotid (FIG. 8C)
[11] = 100 μg/kg body mass, three consecutive daily bolus doses (FIG. 9C)
[12] = 100 μg/kg body mass/day for two days, another rat (FIG. 8G)
[13] = 100 μg/kg body mass/day for two days, one rat (FIG. 8E)

CN[C@@H]1C[C@H]2O[C@@](C)([C@@H]1OC)n1c3ccccc3c3c4c(c5c6ccccc6n2c5c31)C(=O)NC4 [staurosporin]
apoptotic cells (U87 human glioma cells; [8]): 31%
necrotic cells (U87 human glioma cells; [8]): 27%
apoptotic cells [1, 9]: 35%
necrotic cells [1, 9]: 17%
apoptotic cells [2]: 5%
necrotic cells [2]: 11%

O=c1[nH]c2cc(C(F)(F)F)ccc2n1-c1cc(C(F)(F)F)ccc1O [NS-1619, 1,3-dihydro-1-[2-hydroxy-5-(trifluoromethyl)phenyl]-5-(trifluoromethyl)-2H-benzimidazol-2-one]
cell proliferation (9L rat glioma cells): significantly blocks cell proliferation
cell proliferation (C6 rat glioma cells): significantly blocks cell proliferation
cell death (RG2 rat glioma cells; 50 μg/mL (FIG. 3)): 70%
cell proliferation (RG2 rat glioma cells; 1–100 μg/mL, 4 hours, dose-dependent (FIG. 1)): significantly blocks cell proliferation
sensitivity (cell death) ([3]; HBMVEC, 50 μg/mL (FIG. 4)): insensitive
cell proliferation ([3]; normal HBMVEC, 1–100 μg/mL, 4 hours (FIG. 2)): without affecting
sensitivity (cell death) ([4]; HFA, 50 μg/mL (FIG. 4)): insensitive
cell proliferation ([4]; normal HFA, 1–100 μg/mL, 4 hours (FIG. 2)): without affecting
cell death ([5]; 50 μg/mL (FIG. 4)): 90%
cell proliferation ([5]; 1–100 μg/mL, 4 hours, dose-dependent (FIG. 2)): significantly blocked cell proliferation
cell proliferation [6]: significantly blocked cell proliferation
apoptotic cells (U87 human glioma cells; 50 μg/mL): 21%
necrotic cells (U87 human glioma cells; 50 μg/mL): 14%
apoptotic cells (malignant 9L cells): 42%
necrotic cells (malignant 9L cells): 32%
apoptotic cells (malignant C6 cells): 25%
necrotic cells (malignant C6 cells): 35%
apoptosis (malignant RG2 cells): 29%
necrosis (malignant RG2 cells): 29%
apoptosis (primary human GBM cells): 24%
necrosis (primary human GBM cells): 49%
apoptosis (non-malignant HBMVEC): 4%
induction of necrosis (non-malignant HBMVEC): did not significantly induce
apoptotic cells [1, 10]: 28%
necrotic cells [1, 10]: 24%
apoptosis [1, 11]: 55%
necrosis [1, 11]: 9%
apoptosis [1, 12]: 34%
necrosis [1, 12]: 9%
apoptosis [1, 13]: 44%
necrosis [1, 13]: 15%
cell death in tumor tissue ([1]; infusion for two or three consecutive days at up to 100 μg/kg body mass): inducing a selective cell death in tumor tissue
PTK activity [7]: did not significantly affect PTK activity
solubility in water (Solubility in water): not easily dissolved in water
